Source: patent publication US10513694B2, “Thienopyrrole compounds and uses thereof” (PROMEGA CORPORATION, priority 2015, dated 2019)
“Also recorded” adds a separate entry of the source.

Key:
[1] = test system: Nluc-HALOTAG labeled with NANOBRET 618 ligand; assay: Inhibition of extracellular BRET; format: cell-based; details: HEK293 Nluc-HDAC6; 10 ng/mL extracellular Nluc-HALOTAG/NANOBRET 618; 2 hrs
Method: HEK293 were transiently transfected with an Nluc-HDAC6 fusion protein to orient Nluc-HDAC6 inside the cell. 24 hrs post-transfection, cells were treated 10 ng/mL purified Nluc-HALOTAG labeled with NANOBRET 618 ligand to simulate spurious extracellular BRET. Cells were then exposed to a compound response curve of the thienopyrrole compounds, JRW-0013, JRW-0051, JRW-0147, and JRW-0187, for 2 hrs. 10 μM furimazine was then added, and BRET ratio 610/450 nm was measured.

[2] = test system: Nluc-ADRB2 (extracellular Nluc) or ADRB2-Nluc (intracellular Nluc); assay: Cell permeability with bioluminescent imaging (HeLa, Nluc-ADRB2 / ADRB2-Nluc); format: cell-based; details: 30 μM compound, 10 μM furimazine
Method: HeLa cells were transiently transfected with Nluc-ADRB2 (extracellular Nluc) or ADRB2-Nluc (intracellular Nluc) to anchor and orient Nluc extracellularly or intracellularly, respectively. 24 hrs post-transfection, cells were treated with −/+30 μM of a thienopyrrole compound, JRW-0147, JRW-0013, and JRW-0344. 10 μM furimazine was added, and luminescence was detected by imaging on the Olympus LV200.

[3] = test system: firefly luciferase, e.g., ULTRAGLO® luciferase; assay: Specificity of inhibition: firefly luciferase activity; format: biochemical; details: 1 μM luciferin in Luciferase Detection Reagent; RT 2 hrs
Procedure, shortened: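 Counter-screen against firefly (ULTRAGLO®) luciferase: 1 μM luciferin in detection reagent mixed with equal volume of compound titrations. After 2 hrs at RT, luminescence read.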

[4] = test system: Beta-2 Adrenergic Receptor-Nluc (B2AR-Nluc) fusion protein; assay: Cell permeability, B2AR-Nluc in HEK293 -/+ digitonin; format: cell-based; details: HEK293 B2AR-Nluc -/+ 50 μg/mL digitonin; up to 2 hrs
Method: HEK293 were transiently transfected with Beta-2 Adrenergic Receptor-Nluc (B2AR-Nluc) fusion protein to anchor and orient Nluc cytosolically and pGEM-3z carrier DNA (1:100). 24 hrs post-transfection, cells were treated with −/+50 μg/mL digitonin to emulate a live and lytic scenario, respectively. Then, intact cells and permeabilized cells were exposed to a compound response curve of thienopyrrole compound up to 2 hrs. 10 μM furimazine (Promega Corp.) was added, and luminescence was measured. If a thienopyrrole compound (inhibitor) was permeable, the dose-response curves for both live and permeabilized cells overlapped. However, if a thienopyrrole compound was impermeable, the EC50 was right-shifted in the live cells relative to the permeabilized cells.

NANOLUC® enzyme = NANOLUC® enzyme (Oplophorus gracilirostris, UniProt Q9GV45, A31E/A60N/A81I/F95D/I117V/K70R/L54V/L99Q/M102K/N193R/P142E/Q151K/Q38R/Q45L/V71I/Y165I); assay: Inhibitor IC50 determination (NANOLUC enzyme, furimazine); format: biochemical; details: IC50 (uM), 0.4 ng/ml NANOLUC enzyme, final furimazine 10 uM (at Km)
UltraGlo luciferase = assay: Specificity of inhibition of Nluc luciferase: UltraGlo luciferase; format: biochemical, firefly; details: RT 2 hrs
Method: The following example describes the specificity of disclosed thienopyrrole compounds, JRW-0251, JRW-0344, and JRW-0147, to inhibit Nluc luciferase activity versus firefly luciferase activity, e.g., ULTRAGLO® luciferase. In a Corning 3570 assay plate, a solution containing 1 μM luciferin in Luciferase Detection Reagent (Promega Corporation V865/859) was added to the assay wells. An equal volume of titrations the thienopyrrole compounds, JRW-0251, JRW-0344, and JRW-0147 were then added to the wells. The reactions were incubated at RT for 2 hrs, and luminescence was measured on Tecan M1000 Pro plate reader.

Sequence of NANOLUC® enzyme (Q9GV45 28-196 with tags or gaps with the stated changes limits assumed): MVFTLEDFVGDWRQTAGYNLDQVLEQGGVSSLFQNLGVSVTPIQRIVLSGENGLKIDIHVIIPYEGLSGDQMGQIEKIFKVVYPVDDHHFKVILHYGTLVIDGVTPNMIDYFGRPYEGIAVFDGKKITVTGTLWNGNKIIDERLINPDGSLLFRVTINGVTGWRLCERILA

## CCN(C(=O)Cn1c(C(=O)N[C@H]2CC[C@H](C(=O)OC)CC2)cc2sccc21)c1cccc(C)c1 [JRW-0013, trans-methyl-4-(4-(2-(ethyl(m-tolyl)amino)-2-oxoethyl)-4H-thieno[3,2-b]pyrrole-5-carboxamido)cyclohexane-1-carboxylate]
[1]
  BRET ratio 610/450 nm across compound dose-response curve (FIGS. 12B-12E): BRET ratio remained constant
[2]
  Inhibition of Nluc oriented extracellularly / intracellularly by imaging (FIG. 19): inhibited Nluc in either orientation
[3]
  Inhibition of firefly luciferase activity (FIG. 3): do not inhibit firefly luciferase activity; also recorded: did not inhibit the firefly luciferase activity
[4]
  Cell permeability, EC50 in Live vs Lytic cells (FIGS. 17A-17C): cell permeable control characterized by similar EC50 in Live vs Lytic cells
NANOLUC® enzyme
  IC50: 0.14 µM

## CCN(C(=O)Cn1c(C(=O)N[C@H]2CC[C@H](C(=O)NCCCCCC(=O)O)CC2)cc2sccc21)c1cccc(C)c1 [JRW-0147, 6-(trans-4-(4-(2-(ethyl(m-tolyl)amino)-2-oxoethyl)-4H-thieno[3,2-b]pyrrole-5-carboxamido)cyclohexane-1-carboxamido)hexanoic acid]
[1]
  BRET ratio 610/450 nm across compound dose-response curve (FIGS. 12B-12E): BRET ratio decreased
[2]
  Inhibition of Nluc oriented extracellularly / intracellularly by imaging (FIG. 19): inhibit the classic ring-like structure, but not when Nluc is orientated intracellularly
[3]
  Inhibition of firefly luciferase activity (FIG. 3): do not inhibit firefly luciferase activity; also recorded: did not inhibit the firefly luciferase activity
UltraGlo luciferase
  Inhibition of firefly luciferase activity (Table 3): did not inhibit the firefly luciferase activity
UltraGlo luciferase; [cmpd] 0.1953125 μM
  UltraGlo luciferase, Avg (luminescence): 85561
  UltraGlo luciferase, S/B: 0.99
UltraGlo luciferase; [cmpd] 0.390625 μM
  UltraGlo luciferase, Avg (luminescence): 84087
  UltraGlo luciferase, S/B: 0.97
UltraGlo luciferase; [cmpd] 0.78125 μM
  UltraGlo luciferase, Avg (luminescence): 84072
  UltraGlo luciferase, S/B: 0.97
UltraGlo luciferase; [cmpd] 1.5625 μM
  UltraGlo luciferase, Avg (luminescence): 83668
  UltraGlo luciferase, S/B: 0.97
UltraGlo luciferase; [cmpd] 3.125 μM
  UltraGlo luciferase, Avg (luminescence): 82252
  UltraGlo luciferase, S/B: 0.95
UltraGlo luciferase; [cmpd] 6.25 μM
  UltraGlo luciferase, Avg (luminescence): 83282
  UltraGlo luciferase, S/B: 0.97
UltraGlo luciferase; [cmpd] 12.5 μM
  UltraGlo luciferase, Avg (luminescence): 83291
  UltraGlo luciferase, S/B: 0.97
UltraGlo luciferase; [cmpd] 25 μM
  UltraGlo luciferase, Avg (luminescence): 84033
  UltraGlo luciferase, S/B: 0.97
UltraGlo luciferase; [cmpd] 50 μM
  UltraGlo luciferase, Avg (luminescence): 81106
  UltraGlo luciferase, S/B: 0.94
UltraGlo luciferase; [cmpd] 100 μM
  UltraGlo luciferase, Avg (luminescence): 80636
  UltraGlo luciferase, S/B: 0.93
UltraGlo luciferase; [cmpd] 200 μM
  UltraGlo luciferase, Avg (luminescence): 78035
  UltraGlo luciferase, S/B: 0.90
[4]
  Cell permeability, EC50 in Live vs Lytic cells (FIGS. 17A-17C): cell impermeable characterized by right shifted EC50 in Live vs. Lytic cells
NANOLUC® enzyme
  IC50: 0.094 µM

## CCN(C(=O)Cn1c(C(=O)N[C@H]2CC[C@H](C(=O)NCCCCCCS(=O)(=O)[O-])CC2)cc2sccc21)c1cccc(C)c1.[Na+] [JRW-0344, Sodium 6-(trans-4-(4-(2-(ethyl(m-tolyl)amino)-2-oxoethyl)-4H-thieno[3,2-b]pyrrole-5-carboxamido)cyclohexane-1-carboxamido)hexane-1-sulfonate]
[2]
  Inhibition of Nluc oriented extracellularly / intracellularly by imaging (FIG. 19): inhibit the classic ring-like structure, but not when Nluc is orientated intracellularly
UltraGlo luciferase
  Inhibition of firefly luciferase activity (Table 3): did not inhibit the firefly luciferase activity
UltraGlo luciferase; [cmpd] 0.1953125 μM
  UltraGlo luciferase, Avg (luminescence): 83526.33
  UltraGlo luciferase, S/B: 1.00
UltraGlo luciferase; [cmpd] 0.390625 μM
  UltraGlo luciferase, Avg (luminescence): 82945.67
  UltraGlo luciferase, S/B: 1.00
UltraGlo luciferase; [cmpd] 0.78125 μM
  UltraGlo luciferase, Avg (luminescence): 82135.67
  UltraGlo luciferase, S/B: 0.99
UltraGlo luciferase; [cmpd] 1.5625 μM
  UltraGlo luciferase, Avg (luminescence): 81368.33
  UltraGlo luciferase, S/B: 0.98
UltraGlo luciferase; [cmpd] 3.125 μM
  UltraGlo luciferase, Avg (luminescence): 80134.33
  UltraGlo luciferase, S/B: 0.96
UltraGlo luciferase; [cmpd] 6.25 μM
  UltraGlo luciferase, Avg (luminescence): 83064.33
  UltraGlo luciferase, S/B: 1.00
UltraGlo luciferase; [cmpd] 12.5 μM
  UltraGlo luciferase, Avg (luminescence): 82454.67
  UltraGlo luciferase, S/B: 0.99
UltraGlo luciferase; [cmpd] 25 μM
  UltraGlo luciferase, Avg (luminescence): 83084.00
  UltraGlo luciferase, S/B: 1.00
UltraGlo luciferase; [cmpd] 50 μM
  UltraGlo luciferase, Avg (luminescence): 81805.00
  UltraGlo luciferase, S/B: 0.98
UltraGlo luciferase; [cmpd] 100 μM
  UltraGlo luciferase, Avg (luminescence): 79847.67
  UltraGlo luciferase, S/B: 0.96
UltraGlo luciferase; [cmpd] 200 μM
  UltraGlo luciferase, Avg (luminescence): 77230.33
  UltraGlo luciferase, S/B: 0.93
[4]
  Cell permeability, EC50 in Live vs Lytic cells (FIGS. 17A-17C): cell impermeable characterized by right shifted EC50 in Live vs. Lytic cells
NANOLUC® enzyme
  IC50: 0.077 µM
